Here are results for 30 compounds from US12590063B2, “Phenol derivative” (Sumitomo Pharma Co., Ltd., priority 2020, dated 2026).

For one data set, the target named is T1, Human TRPV1 (Homo sapiens, UniProt Q8NER1).
T1 construct: the TRPV1 gene (GenBank NP_542435.2) had been inserted; expressed in transfected cells; host or cells: HEK293 cells (cat #CCL-82.2, ATCC), transient transfection with pcDNA3.1
The experiment in a line: Evaluation of agonistic properties using human TRPV1 transiently expressing cells. It counts as cell-based. From the text: Test Example 1: Evaluation of Agonistic Properties Using Human TRPV1 Transiently Expressing Cells
(1) Generation of Human TRPV1 Transiently Expressing Cells
Human TRPV1 transiently expressing cells were generated and subjected to culture. Specifically, HEK293 cells (cat #CCL-82.2, ATCC) were used as host cells. Human TRPV1 and apoaequorin were transiently expressed by introducing the mammalian cell expression pcDNA3.1 vector (cat #v790-20, Invitrogen) into which the TRPV1 gene (GenBank NP_542435.2) had been inserted.
The Dulbecco's Modified Eagle's Medium (DMEM) medium (cat #11550-043, Thermo Fisher Scientific) containing 10% inactivated fetal bovine serum (cat #10270-106, Thermo Fisher Scientific) was used as the medium, and the culture was carried out in tissue culture dishes (cat #3020-100, Iwaki). During the culture, cells were collected every 2 to 3 days by treating with PBS containing 10% 2.5 g/1-trypsin/[…] solution, phenol red (cat #32777-44, Nacalai Tesque), and passage culture was carried out.
Three days after the passage, cells were collected with 10% trypsin-PBS treatment at a state of about 80% confluency, suspended in a DMEM medium containing 10% fetal bovine serum to 4000 cells/35 μl/well, and seeded into 384-well plates (cat #353962, FALCON).
The day after seeding, Viviren (cat #E6492, Promega) was added (15 μl/well) to a final concentration of 4.5 μM/HBSS (cat #14065-056, Thermo Fisher Scientific)/90 mM HEPES (cat #17514-15, Nacalai Tesque)/0.1% BSA (cat #01281-84, Nacalai Tesque), and after centrifugation, the samples were allowed to stand at room temperature for 2 hours under light-shielded conditions.
(2) Preparation of Test Compounds
For the test compounds, dimethyl sulfoxide solutions were produced at a concentration 1000 times the final concentration, and from these solutions, solutions at concentration 10 times the final concentration were prepared with Hanks/20 mmol/L HEPES/0.10% BSA (cat #01281-84, Nacalai Tesque).
(3) Evaluation of TRPV1-Agonistic Properties
FDSS7000 (Hamamatsu Photonics K.K.) was used for detection of TRPV1 agonist-stimulated luminescence signals. The test compounds were added to plates to which the cells and luminescent substrates had been added. The luminescence signals (center wavelength: 465 nm) after addition of the test compounds were measured, and the Rlu (Max−Min) was calculated.

Data set [1] is described as follows: Evaluation test for metabolic stability to S9. It counts as in vitro ADME. The following applies: liver S9 fraction, 37° C., 15 minutes, final compound concentration 10 nM. How it is done:
Test Example 4: Evaluation Test for Metabolic Stability to S9
The compounds were added to a reaction solution in which the liver S9 fraction was diluted with phosphate buffer, and incubation was initiated at 37° C. (final compound concentration 10 nM, final volume 300 μL). After incubation for 15 minutes, the reaction was stopped by adding the reaction solution to acetonitrile, and centrifugation was carried out. After filtering the supernatant through a filter, the amount of compounds was determined using LC/MS/MS. From the amount of compounds obtained, the residual rate 15 minutes after the initiation of the reaction was calculated relative to the amount of compounds before the initiation of the reaction (0 minutes).

Where [2] appears, read: HEK293 cells transiently expressing human TRPV1 and apoaequorin, luminescence signal Rlu (Max-Min), read-out: TRPV1 EC50.

Like-named read-outs stand apart in the source and are kept apart here.

T1 sequence (Q8NER1 whole entry): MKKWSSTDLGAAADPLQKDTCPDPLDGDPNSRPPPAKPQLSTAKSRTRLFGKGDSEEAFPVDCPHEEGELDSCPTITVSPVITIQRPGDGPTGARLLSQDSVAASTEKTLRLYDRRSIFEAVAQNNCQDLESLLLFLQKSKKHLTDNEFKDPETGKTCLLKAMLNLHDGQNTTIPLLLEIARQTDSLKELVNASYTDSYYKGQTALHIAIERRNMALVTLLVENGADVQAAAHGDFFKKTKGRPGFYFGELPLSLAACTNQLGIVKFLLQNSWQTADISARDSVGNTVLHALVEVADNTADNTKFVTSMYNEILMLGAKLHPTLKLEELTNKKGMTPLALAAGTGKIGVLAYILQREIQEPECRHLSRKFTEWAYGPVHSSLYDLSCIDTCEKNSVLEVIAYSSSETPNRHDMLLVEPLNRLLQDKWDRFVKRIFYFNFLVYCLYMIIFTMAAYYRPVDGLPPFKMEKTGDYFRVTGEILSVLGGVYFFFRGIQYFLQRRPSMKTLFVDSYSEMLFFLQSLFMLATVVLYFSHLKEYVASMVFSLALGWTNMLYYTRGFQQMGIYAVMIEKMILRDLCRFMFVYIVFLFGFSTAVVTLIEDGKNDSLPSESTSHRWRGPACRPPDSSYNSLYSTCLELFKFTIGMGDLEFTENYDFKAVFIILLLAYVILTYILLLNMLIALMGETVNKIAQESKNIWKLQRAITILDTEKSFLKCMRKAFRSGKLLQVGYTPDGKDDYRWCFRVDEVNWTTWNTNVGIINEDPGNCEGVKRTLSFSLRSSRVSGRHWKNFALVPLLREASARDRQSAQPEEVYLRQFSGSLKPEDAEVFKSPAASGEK

For the compound `COc1cc(CC(=O)Nc2cccc(-c3ccc(OC(=O)c4ccccc4)cc3)c2)ccc1O` [Example 3, 3′-[2-(4-hydroxy-3-methoxyphenyl)acetamido][1,1′-biphenyl]-4-yl benzoate], the EC50 on Human TRPV1 (setting [2]) turned out to be 341 nM. Moreover, the “Residual rate (%)” value in data set [1] is on record as less than 1%.

Regarding `COc1cc(CC(=O)Nc2cccc(-c3ccc(OC(=O)C(C)C)cc3)c2)ccc1O` [Example 4, 3′-[2-(4-hydroxy-3-methoxyphenyl)acetamido][1,1′-biphenyl]-4-yl 2-methylpropanoate], the EC50 on Human TRPV1 (setting [2]) stood at 33.6 nM. Moreover, in data set [1], the “Residual rate (%)” value was less than 1%.

Take `COc1cc(CC(=O)Nc2cccc([C@H]3CC[C@@H](OC(=O)CC4CCCCC4)CC3)c2)ccc1O` [Example 5, cis-4-{3-[2-(4-hydroxy-3-methoxyphenyl)acetamido]phenyl}cyclohexyl cyclohexylacetate]: the EC50 at Human TRPV1 (setting [2]) was found to be 61.2 nM. Also, the “Residual rate (%)” value in data set [1] turned out to be 90%.

Consider `COc1cc(CC(=O)Nc2cccc([C@H]3CC[C@@H](OC(=O)COc4ccccc4)CC3)c2)ccc1O` [Example 6, cis-4-{3-[2-(4-hydroxy-3-methoxyphenyl)acetamido]phenyl}cyclohexyl phenoxyacetate], for which the EC50 on Human TRPV1 (setting [2]) amounted to 5.3 nM. Also, the “Residual rate (%)” value in data set [1] came to 1%.

As for `COc1cc(CC(=O)Nc2cccc([C@H]3CC[C@@H](OC(=O)Cc4cc(F)cc(F)c4)CC3)c2)ccc1O` [Example 7, cis-4-{3-[2-(4-hydroxy-3-methoxyphenyl)acetamido]phenyl}cyclohexyl (3,5-difluorophenyl)acetate], the EC50 on Human TRPV1 (setting [2]) is 5.6 nM. Besides, the “Residual rate (%)” value in data set [1] turned out to be 100%.

On to `COc1cc(CC(=O)Nc2cccc([C@H]3CC[C@@H](OC(=O)Cc4ccc(F)cc4)CC3)c2)ccc1O` [Example 8, cis-4-{3-[2-(4-hydroxy-3-methoxyphenyl)acetamido]phenyl}cyclohexyl (4-fluorophenyl)acetate], for which the EC50 on Human TRPV1 (setting [2]) came to 6.1 nM. Moreover, the “Residual rate (%)” value in data set [1] was 89%.

On to `COc1cc(CC(=O)Nc2cccc([C@H]3CC[C@@H](OC(=O)Cc4cccc(C)c4)CC3)c2)ccc1O` [Example 9, cis-4-{3-[2-(4-hydroxy-3-methoxyphenyl)acetamido]phenyl}cyclohexyl (3-methylphenyl)acetate], for which the EC50 on Human TRPV1 (setting [2]) amounted to 2 nM. For the same compound, the “Residual rate (%)” value in data set [1] turned out to be 88%.

For the compound `COc1cc(CC(=O)Nc2cccc([C@H]3CC[C@@H](OC(=O)Cc4ccccc4Cl)CC3)c2)ccc1O` [Example 10, cis-4-{3-[2-(4-hydroxy-3-methoxyphenyl)acetamido]phenyl}cyclohexyl (2-chlorophenyl)acetate], the EC50 at Human TRPV1 (setting [2]) was 4.8 nM. The “Residual rate (%)” value in data set [1] was determined as 67%.

For `COc1cc(CC(=O)Nc2cccc([C@H]3CC[C@@H](OC(=O)CC4CCOCC4)CC3)c2)ccc1O` [Example 11, cis-4-{3-[2-(4-hydroxy-3-methoxyphenyl)acetamido]phenyl}cyclohexyl (oxa-4-yl)acetate], the EC50 at Human TRPV1 (setting [2]) came out at 21.3 nM. For the same compound, the “Residual rate (%)” value in data set [1] amounted to 91%.

For the compound `COc1cc(CC(=O)Nc2cccc([C@H]3CC[C@@H](OC(=O)Cc4cccs4)CC3)c2)ccc1O` [Example 13, cis-4-{3-[2-(4-hydroxy-3-methoxyphenyl)acetamido]phenyl}cyclohexyl (thiophen-2-yl)acetate], on Human TRPV1 (setting [2]), the EC50 is 9 nM. In addition, in data set [1], the “Residual rate (%)” value is reported as 89%.

For `COc1cc(CC(=O)Nc2cccc([C@H]3CC[C@@H](OC(=O)Cc4ccccc4)CC3)c2)ccc1O` [Example 35, cis-4-{3-[2-(4-hydroxy-3-methoxyphenyl)acetamido]phenyl}cyclohexyl phenylacetate], the response at Human TRPV1 was half-maximal at 8.2 nM (EC50).

Consider `COc1cc(CC(=O)Nc2cccc([C@H]3CC[C@H](OC(=O)Cc4ccccc4)CC3)c2)ccc1O` [Example 36, trans-4-{3-[2-(4-hydroxy-3-methoxyphenyl)acetamido]phenyl}cyclohexyl phenylacetate], for which the EC50 at Human TRPV1 stood at 57.5 nM.

With `COc1cc(CC(=O)Nc2cccc([C@H]3CC[C@H](OC(=O)C4CCCCC4)CC3)c2)ccc1O` [Example 37, trans-4-{3-[2-(4-hydroxy-3-methoxyphenyl)acetamido]phenyl}cyclohexyl cyclohexanecarboxylate], the EC50 at Human TRPV1 (setting [2]) amounted to 73.1 nM.

With `COc1cc(CC(=O)Nc2cccc([C@H]3CC[C@H](OC(C)=O)CC3)c2)ccc1O` [Example 38, trans-4-{3-[2-(4-hydroxy-3-methoxyphenyl)acetamido]phenyl}cyclohexyl acetate], the EC50 at Human TRPV1 (setting [2]) came to 18.9 nM.

Consider `COc1cc(CC(=O)Nc2cccc([C@H]3CC[C@@H](OC(C)=O)CC3)c2)ccc1OC(C)=O` [Example 39, 4-(2-{3-[(cis)-4-(acetyloxy)cyclohexyl]anilino}-2-oxoethyl)-2-methoxyphenyl acetate], for which the EC50 at Human TRPV1 (setting [2]) stood at 282 nM.

`COc1cc(CC(=O)Nc2cccc([C@H]3CC[C@H](OC(C)=O)CC3)c2)ccc1OC(C)=O` [Example 40, 4-(2-{3-[(trans)-4-(acetyloxy)cyclohexyl]anilino}-2-oxoethyl)-2-methoxyphenyl acetate]: the EC50 at Human TRPV1 (setting [2]) came to 480 nM.

`COc1cc(CC(=O)Nc2ccnc([C@H]3CC[C@@H](OC(C)=O)CC3)c2)ccc1O` [Example 41, cis-4-{4-[2-(4-hydroxy-3-methoxyphenyl)acetamido]pyridin-2-yl}cyclohexyl acetate]: the 50% effective concentration (EC50) on Human TRPV1 (setting [2]) stood at 95.1 nM.

Regarding `COc1cc(CNC(=O)c2cccc([C@H]3CC[C@@H](OC(C)=O)CC3)c2)ccc1O` [Example 42, cis-4-(3-{[(4-hydroxy-3-methoxyphenyl)methyl]carbamoyl}phenyl)cyclohexyl acetate], the EC50 on Human TRPV1 (setting [2]) was found to be 83.1 nM.

For `COc1cc(CC(=O)Nc2ccnc([C@H]3CC[C@@H](OC(C)=O)CC3)c2)ccc1OC(C)=O` [Example 43, 4-[2-({2-[(cis)-4-(acetyloxy)cyclohexyl]pyridin-4-yl}amino)-2-oxoethyl]-2-methoxyphenyl acetate], the EC50 at Human TRPV1 (setting [2]) was determined as 3080 nM.

With `COc1cc(CC(=O)Nc2cccc([C@H]3CC[C@H](OC(=O)C(C)C)CC3)c2)ccc1O` [Example 48, trans-4-{3-[2-(4-hydroxy-3-methoxyphenyl)acetamido]phenyl}cyclohexyl 2-methylpropanoate], on Human TRPV1 (setting [2]), the EC50 was determined as 32.1 nM.

For `COc1cc(CC(=O)Nc2cccc([C@H]3CC[C@@H](O)CC3)c2)ccc1O` [Reference Example 9, N-{3-[(cis)-4-Hydroxycyclohexyl]phenyl}-2-(4-hydroxy-3-methoxyphenyl)acetamide], the EC50 on Human TRPV1 (setting [2]) was 2690 nM.

Regarding `COc1cc(CC(=O)Nc2cccc([C@H]3CC[C@H](O)CC3)c2)ccc1O` [Reference Example 10, N-{3-[(trans)-4-Hydroxycyclohexyl]phenyl}-2-(4-hydroxy-3-methoxyphenyl)acetamide], the EC50 on Human TRPV1 (setting [2]) was 8060 nM.

For the compound `COc1cc(CNC(=O)c2cccc(-c3cccc(O)c3)c2)ccc1O` [Reference Example 12, 3′-Hydroxy-N-[(4-hydroxy-3-methoxyphenyl)methyl][1,1′-biphenyl]-3-carboxamide], the EC50 at Human TRPV1 (setting [2]) was found to be 3290 nM.

Take `COc1cc(CNC(=O)c2ccnc(-c3cccc(O)c3)c2)ccc1O` [Reference Example 18]: the EC50 on Human TRPV1 (setting [2]) was determined as 6110 nM.

Turning to `COc1cc(CC(=O)Nc2cccc(-c3ccc(O)cc3)c2)ccc1O` [compound 13], the EC50 on Human TRPV1 (setting [2]) amounted to 606 nM.

As to `COc1cc(CC(=O)Nc2cccc(-c3cccc(O)c3)c2)ccc1O` [compound 14], the EC50 on Human TRPV1 (setting [2]) amounted to 1650 nM.

As to `COc1cc(CC(=O)Nc2ccnc(-c3cccc(O)c3)c2)ccc1O` [compound 15], the EC50 at Human TRPV1 (setting [2]) was found to be 4560 nM.

Turning to `COc1cc(CC(=O)Nc2cccc(-c3cccc(O)c3)n2)ccc1O` [compound 16], the EC50 on Human TRPV1 (setting [2]) came out at 1010 nM.

For the compound `COc1cc(CC(=O)Nc2ccc(F)c(-c3cccc(O)c3)c2)ccc1O` [compound 17], the EC50 on Human TRPV1 (setting [2]) is 7020 nM.

Regarding `COc1cc(CNC(=O)c2cccc(-c3cccc(O)c3)n2)ccc1O` [compound 19], the EC50 at Human TRPV1 (setting [2]) stood at 2720 nM.

A word on the EC50: it is the concentration that produces a half-maximal response.
